Assay results: the Kinase Knowledgebase extract (Sharma et al. 2016)
Values joined by “and” are separate entries in the source; they are usually repeats but may differ in a detail not shown here. Equal entries are not always repeated.

Legend:
MAPK14 (rat) [1] = assay: Cell-Based Assay; conditions: mesencephalic neurons
MAPK14 (rat) [2] = assay: Animal Model; conditions: mesencephalon tissue
MAPK14 (rat) [3] = assay: Cell-Based Assay; conditions: mesencephalic neurons; remark: listed apart in the source

Row | SMILES | cell count (MAPK14 (rat) [1]) | response (MAPK14 (rat) [1]) | cell count (MAPK14 (rat) [2]) | cell count (MAPK14 (rat) [3]) | response (MAPK14 (rat) [3])
1 | O=[N+]([O-])c1ccc(-c2nc(-c3ccc(F)cc3)c(-c3ccncc3)[nH]2)cc1 | 283 cm-2 | 400 cm2 and 570 cm2 | 3020 | 421 cm-2 | 454 cm2
2 | Oc1ccc(-c2nc(-c3ccc(F)cc3)c(-c3ccncc3)[nH]2)cc1 | 283 cm-2 | 600 cm2 and 473 cm2 |  |  | 
